Measured values: patent US5863913A, “Aromatic compound and pharmaceutical composition” (Kureha Chemical Industry Co., Ltd., priority 1996, dated 1999)

How the values were obtained:
[1] = target: T1, angiotensin II receptor subtype 1 (AT1) (Oryctolagus cuniculus, UniProt P34976); test: Binding to receptors: angiotensin II receptor subtype 1 (AT1); design: species or system rabbits (adrenal glands); settings: rabbit adrenal glands, tracer 3H-angiotensin II
T1 construct: receptor : from adrenal glands in rabbits; from tissue; host or cells: rabbit adrenal glands
T1 sequence (P34976 1-359): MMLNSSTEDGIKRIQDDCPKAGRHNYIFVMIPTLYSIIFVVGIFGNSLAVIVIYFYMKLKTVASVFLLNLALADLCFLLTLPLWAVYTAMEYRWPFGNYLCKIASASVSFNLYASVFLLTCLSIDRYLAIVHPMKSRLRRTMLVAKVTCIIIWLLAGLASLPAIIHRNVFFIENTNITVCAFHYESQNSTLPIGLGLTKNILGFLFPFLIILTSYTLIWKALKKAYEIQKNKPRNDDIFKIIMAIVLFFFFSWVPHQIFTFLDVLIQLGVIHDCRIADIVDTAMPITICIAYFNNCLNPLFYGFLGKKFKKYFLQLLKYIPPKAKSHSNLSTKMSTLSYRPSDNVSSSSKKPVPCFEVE

[2] = target: T2, angiotensin II receptor subtype 2 (AT2) (Bos taurus, UniProt G5E6F7); test: Binding to receptors: angiotensin II receptor subtype 2 (AT2); settings: bovine cerebellar cortex, tracer 125I-Tyr4-angiotensin II
T2 construct: receptor : from cerebellar cortex in bovine; from tissue; host or cells: bovine cerebellar cortex
T2 sequence (G5E6F7 1-362): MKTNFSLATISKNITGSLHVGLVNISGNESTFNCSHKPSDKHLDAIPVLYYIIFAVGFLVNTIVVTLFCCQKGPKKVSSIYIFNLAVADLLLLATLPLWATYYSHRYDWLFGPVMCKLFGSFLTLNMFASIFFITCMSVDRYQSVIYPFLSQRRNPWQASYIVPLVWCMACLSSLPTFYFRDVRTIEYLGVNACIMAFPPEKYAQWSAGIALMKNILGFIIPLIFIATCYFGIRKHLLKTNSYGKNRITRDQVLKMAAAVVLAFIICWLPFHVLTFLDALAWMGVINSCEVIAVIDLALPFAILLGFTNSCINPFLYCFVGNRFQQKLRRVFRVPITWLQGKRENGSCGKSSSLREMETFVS
Method: In this Example, the affinity to the angiotensin II receptor subtype 1 or subtype 2 was evaluated by a binding assay in accordance with the method described in Biochem. Pharmacol., 33, 4057-4062 (1984).
Specifically, the measurement of the total binding in the presence of each drug was performed as follows:
A mixture (final volume=0.25 ml) of a drug in a given concentration (the drug was dissolved in DMSO, and diluted to a double volume with a buffer attached to a drug discovery system to prepare a sample for the assay; 0.025 ml), a tracer (0.025 ml), and receptors (0.2 ml) was incubated [in the case of the angiotensin II receptor subtype 1 (AT1), at room temperature for 3 hours, and in the case of the subtype 2 (AT2), at 37° C. for 1 hour]. Then, the reaction mixture was filtered with suction (GF/C filter was used in AT1, and GF/B filter was used in AT2). The filter papers after filtration with suction (the tracer bound to the receptors) were counted by a γ-well counter (ARC-500, Aloka). The non-specific bindings were measured by repeating the above method, except that a large excess amount of a displacer was added. The specific binding of the drug in the given concentration was calculated by subtracting the non-specific binding from the total binding, respectively.
In AT1 and AT2, the percentages found to inhibit the bindings of radioactive ligands (tracer) to receptors by the drugs to be tested (IC50 value of concentration to show 50% inhibition, or binding inhibition % in 100 μM) were measured, using the drugs to be tested and control drugs in the given concentration.
receptor : from cerebellar cortex in bovine
tracer : ^125 ITyr^4angiotensin II
control drug : angiotensin II (human)
(displacer) : angiotensin II (human)

[3] = tested on: kidney disease model rats; test: Renal function indicatory value in kidney disease model rats; assay type: in vivo, Sprague-Dawley female rats; settings: 20 mg/kg/day with drinking water, six weeks; for Creatinine clearance: 24 hours urine, control 0.22; for Creatinine / Blood urea nitrogen: serum; for Creatinine: control 2.0; for Blood urea nitrogen: control 100
[4] = tested on: kidney disease model rats; test: Survival time of kidney diseased animals; assay type: in vivo, Sprague-Dawley female rats; settings: 20 mg/kg/day with drinking water, observation period eight weeks (upper limit); control 5.0

CCCCC(=O)N(Cc1ccc(C(=O)OCCN(C)C)cc1)c1cc(C(=O)N2CCOCC2)ccc1C(C)C [Compound No. 6, 3-N-[[[4-(2'-dimethylaminoethoxycarbonyl)phenyl]methyl]valeramido]-4-i-propylbenzoic acid morpholide]
inhibition at 100 µM [1]: 11%
inhibition at 100 µM [2]: 21%
Creatinine clearance [3]: 0.33 mL/min
Creatinine [3]: 1.3 mg/dL
Blood urea nitrogen [3]: 75 mg/dL
Average survival time [4]: 7.0 weeks

CCCCC(=O)N(Cc1ccc(C(=O)OCCN(C)C)cc1)c1cc(C(=O)N2CCOCC2)ccc1N(C)C [Compound No. 1, 4-dimethylamino-3-N-[[[4-(2'-dimethylaminoethoxycarbonyl)phenyl]methyl]valeramido]benzoic acid morpholide]
inhibition at 100 µM [1]: 10%
inhibition at 100 µM [2]: 16%
Creatinine clearance [3]: 0.47 mL/min
Creatinine [3]: 1.2 mg/dL
Blood urea nitrogen [3]: 62 mg/dL
Average survival time [4]: 7.5 weeks
